Columns and labels:
[1] = Particle diameter measurement of milled product (HELOS&RODOS dry powder particle size analyzer); format: physicochemical; details: evaluated by using FIG. 3
Experimental: The particle diameter of the milled olmesartan medoxomil obtained in Example (1) was measured under the following conditions. Apparatus: HELOS&RODOS dry powder particle size analyzer Lens: R3 Dispersive pressure: 1.5 bar Trigger condition: 2s-1000ms-k15-0.5% Feeder: VIBRI (feeding: 70%)

[2] = Measurement of dissolution ratio of pulverized olmesartan medoxomil (JP Dissolution Test Method 2, Paddle Method); format: physicochemical; details: calculated from regression equation in FIG. 1, 30 minutes, JP-2, 200 paddle rpm
Experimental: According to the Method 2 of the Dissolution Test (Paddle Method) described in the 14th Revised Edition of the Japanese Pharmacopoeia, at 200 paddle revolutions per-minute using 900 mL of Japanese Pharmacopoeia Solution 2 (JP-2) for the test solution, 20 mg of milled olmesartan medoxomil prepared per 1 Bessel was added. The test solution was sampled at 30 minutes after the start of the testing, the sampled test solution was filtered through a membrane filter having a pore diameter of 0.45 μm, and the dissolution ratio of olmesartan medoximil was measured by spectrophotometer. Calculation of the dissolution ratio was conducted based on “absorbance of filtrate at 257 nm-absorbance of filtrate at 338 nm”.

- particle diameter at 99% cumulative volume ([1]; required for a medicament which elutes 60% or more): ≤ 156 μm
- particle diameter at 99% cumulative volume ([1]; required for a medicament which elutes 65% or more): ≤ 137 μm
- particle diameter at 99% cumulative volume ([1]; required for a medicament which elutes 70% or more): ≤ 119 μm
- dissolution ratio of the drug substance ([2]; desired dissolution ratio of the medicament (20 mg tablet) set to 60%): 42.93%
- dissolution ratio of the drug substance ([2]; desired dissolution ratio of the medicament (20 mg tablet) set to 65%): 50.56%
- dissolution ratio of the drug substance ([2]; desired dissolution ratio of the medicament (20 mg tablet) set to 70%): 58.18%
SMILES: CCCc1nc(C(C)(C)O)c(C(=O)OCc2oc(=O)oc2C)n1Cc1ccc(-c2ccccc2-c2nnn[nH]2)cc1 [olmesartan medoxomil, (5-methyl-2-oxo-1,3-dioxolen-4-yl)methyl 4-(1-hydroxy-1-methylethyl)-2-propyl-1-[2′-(1H-tetrazol-5-yl)biphenyl-4-ylmethyl]imidazole-5-carboxylate]
